# According to patent US20140358576A1, “SYSTEM AND METHOD FOR SURVEILLANCE AND EVALUATION OF SAFETY RISKS ASSOCIATED WITH MEDICAL INTERVENTIONS” (Adverse Events, Inc., priority 2013, published 2014):
# Read-outs that look alike come from different tables or passages of the source.
# Key:
# [1] = patients, post-approval; cited from earlier work
# [2] = human
# [3] = human; remark: listed apart in the source
# [4] = RxScore calculation, Example 2 (FAERS components with event reporter Importance Weighting, no FDA warning/DEA schedule); settings: for RxScore: Example 2, maximum of 100 total points, Importance Weighting applied; for Condition Seriousness / Adverse Event Seriousness / Outcome: Example 2 component score; for Condition Seriousness: up to 12 points; for Adverse Event Seriousness: up to 27 points; for Outcome: up to 35 points, comorbidity adjusted; for ROR: Example 2 disproportionality measure component score, up to 20 points; for Report Priority: Example 2 report type component score, up to 6 points
Structure (SMILES),side effect that became evident after FDA approval [1],RxScore [4],Condition Seriousness [4],Adverse Event Seriousness [4],Outcome [4],ROR [4],Report Priority [4],other results
COCc1c(C(C)C)nc(C(C)C)c(/C=C/[C@@H](O)C[C@@H](O)CC(=O)O)c1-c1ccc(F)cc1 [Baycol],a fatal muscle-wasting syndrome,–,–,–,–,–,–,–
"CC(C)CC(N(C)C)C1(c2ccc(Cl)cc2)CCC1 (stereo not drawn) [Meridia, Sibutramine]",severe cardiac complications,–,–,–,–,–,–,–
"CS(=O)(=O)c1ccc(C2=C(c3ccccc3)C(=O)OC2)cc1 [Vioxx, rofecoxib]",increased heart attack and stroke rates,–,–,–,–,–,–,–
COc1ccc2c3c1O[C@H]1C(=O)CC[C@@]4(O)[C@@H](C2)N(C)CC[C@]314 [oxycodone],–,–,–,–,–,–,–,disproportionality (ROR) score [2]: 268; Adverse Event Seriousness [3]: 14.17; Literature [3]: 18.8; Outcome [3]: 14.81; ROR [3]: 5.51; RxScore [3]: 100.00
"O=P(O)(O)C(O)(Cc1cccnc1)P(=O)(O)O [risedronate sodium (Actonel), risedronate sodium]",–,46.13,2.40,8.19,13.15,4.82,3.46,–
"O=P(O)(O)C(O)(Cc1cccnc1)P(=O)(O)O [risedronate sodium (Atelvia), risedronate sodium]",–,39.63,2.40,4.60,12.68,5.34,1.63,–
